# Reference: patent US6461822B2, “Methods of screening compounds for their ability to inhibit the production of inflammatory cytokines” (Pfizer Inc., priority 1998, dated 2002)
# How the values were obtained:
# [1] = tested on: ATP-induced IL-1β production; experiment: IL-1β production assay, ELISA method (ATP-induced IL-1β production by LPS-activated human monocytes); type: cell-based; conditions: for ATP-induced IL-1β production: human monocytes treated continuously with agent, FIG. 2A
# Protocol: IL-1β production assay—ELISA method. Human monocytes were isolated from heparinized blood collected from normal volunteers. 100 ml of blood was diluted with 20 ml of RPMI 1640 medium that contained 5% FBS, 25 mM Hepes, pH 7.3, 2 mM glutamine, and 1% penicillin/streptomycin (Maintenance Medium). 30 ml of this suspension then was layered onto 15 ml of Lymphocyte Separation Medium (Organo Technicon) and centrifuged for 30 min at 1400 rpm at room temperature in a clinical centrifuge. The resulting mononuclear cell layer was harvested, diluted with Maintenance Medium, and the cells were pelleted by centrifugation. The recovered cells were washed with Maintenance Medium by repeated centrifugation. Each well of a 96 well plate was seeded with 2×10^5 mononuclear cells in 0.1 ml of Maintenance Medium; monocytes were allowed to adhere for 2 hr, then the medium (containing non-adherent cells) was replaced with 0.1 ml of fresh medium, and the monocytes were incubated overnight at 37° C. Monocytes were activated with 10 ng/ml of LPS (E. coli; serotype 055:B5) for 2 hr after which the medium was replaced with 0.1 ml of RPMI 1640, 20 mM Hepes, pH 6.9, 100 units/ml penicillin, 100 μg/ml streptomycin, 1% FBS (Release Medium) containing the indicated concentration of test agent; compounds were dissolved in DMSO and the final DMSO concentration in all wells was maintained at 0.2%. […] Cells subsequently were removed by centrifugation, media supernatants were harvested, and IL-1β levels within the media samples were determined with a specific ELISA kit (R and D Systems); each data point is the average of quadruplicate determinations.
# rDBP-32 = molecular target: T1, rDBP-32 (Homo sapiens, UniProt O00299); experiment: Labeling rDBPs with [14C]Compound 2 (SDS PAGE, phosphorimager); type: binding; conditions: FIG. 7A
# T1 construct: cleaved with thrombin to yield full-length rDBP-31 and rDBP-32 polypeptides; GST (N, cleaved yes); made in house; host or cells: E. coli (as for DBP-31: BL21 [DE3], pGEX2T)
# From the text: (§1) Labeling rDBPs. […].
# [2] = molecular target: bacterial glutathione S-transferase (Schistosoma japonicum, UniProt P08515); type: binding; conditions: identical conditions; FIG. 7A
# From the text: as §1
# [3] = tested on: soluble polypeptides of human monocytes (31, 32, 56 kDa); experiment: Identification of DASU binding proteins: labeling of monocyte polypeptides by [14C]DASUs; conditions: [14C]labeled ligand 100 nM to 10 μm; FIG. 3
# Protocol: Identification of DASU binding proteins. Human monocytes (isolated as described above and plated on 6 cm dishes) were treated with [^14C]Compound 1 in 3 ml of Release Medium (devoid of FBS) for 60 min after which cells were washed twice with 5 ml of Release Medium containing 5% FBS and suspended in 1 ml of 25 mM Hepes, pH 7, 150 mM NaCl, 1 μg/ml pepstatin, 1 μg/ml leupeptin, containing 0.5% saponin. Lysates were clarified by ultracentrifugation and the recovered soluble fractions were exchanged into 10 mM Tris, pH 8, containing 1 μg/ml each of pepstatin and leupeptin with the use of Centricon 30 concentration units. Final concentrates were lyophilized and then solubilized in SDS sample buffer.
# [4] = tested on: porcine liver carboxylesterase; experiment: in vitro carboxylesterase enzyme assay with p-nitrophenyl propionate; conditions: co-incubation with 100 μM
# Sequence of bacterial glutathione S-transferase (P08515 2-218 limits assumed): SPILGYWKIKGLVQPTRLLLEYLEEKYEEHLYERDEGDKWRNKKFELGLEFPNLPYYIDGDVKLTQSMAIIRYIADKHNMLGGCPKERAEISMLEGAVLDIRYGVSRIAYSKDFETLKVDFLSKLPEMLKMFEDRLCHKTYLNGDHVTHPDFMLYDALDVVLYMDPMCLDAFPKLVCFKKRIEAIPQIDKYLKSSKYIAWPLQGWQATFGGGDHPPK
melting point,SMILES,ATP-induced IL-1β production [1],"IL-1β production after pretreatment and ATP in absence of compound ([1]; pretreated 60 min, then ATP without compound, FIG. 2B)",labeling of rDBP-32 (rDBP-32),labeling of bacterial glutathione S-transferase [2],radiolabeled polypeptides in soluble fraction of monocyte extracts [3],reduction of observed carboxylesterase enzymatic activity [4],IL-1 production of [14C]DASU-treated cells exposed to ATP ([1]; FIG. 3B)
–,"O=C(Nc1c2c(cc3c1CCC3)CCC2)NS(=O)(=O)c1cc(C2CO2)ccc1F (centres unmarked) [Compound 2, 1-(1,2,3,5,6,7-Hexahydro-s-indacen-4-yl)-3-[2-fluoro-5-oxiranyl-benzenesulfonyl]-urea]",dose-dependent inhibition,remained suppressed,labeled by [^14C]Compound 2 in a concentration dependent manner,not labeled,several radiolabeled polypeptides were detected,67%,–
126 to 130 °C,"CC(C)c1cc(Cl)cc(C(C)C)c1NC(=O)NS(=O)(=O)c1cc(C2CO2)ccc1F (centres unmarked) [Compound 1, 1-(4-Chloro-2,6-diisopropyl-phenyl)-3-[2-fluoro-5-oxiranylbenzene-sulfonyl]-urea]",dose-dependent inhibition,–,–,–,several radiolabeled polypeptides were detected,–,dose-dependent inhibition
–,"O=[N+]([O-])c1ccc(OCC2CO2)cc1 (centres unmarked) [2-(4-nitro-phenoxymethyl)-oxirane, reference compound]",did not inhibit,–,–,–,–,–,–
